For the assay, the system named is P388 leukemia ip, CD2F1 mice, survival T/C. Description: NCI In Vivo Anticancer Drug Screen. Data for tumor model P388 Leukemia (intraperitoneal) in CD2F1 (CDF1) mice. As to conditions: endpoint: median survival time, higher = longer survival. In outline: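 Mice carrying the transplanted tumor received test compound or vehicle. Survival was recorded in each group, and the value is the treated-group measurement divided by that of the vehicle-treated control group.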

Where “and” joins values, the source holds several entries; their conditions need not be identical. Equal values may be shown once. Toxic doses and inconclusive results are not listed.

Consider `CC(=O)O[C@H]1C(=O)[C@@]2(C)[C@H]([C@H](OC(=O)c3ccccc3)[C@]3(O)C[C@H](OC(=O)[C@H](O)[C@@H](NC(=O)c4ccccc4)c4ccccc4)C(C)=C1C3(C)C)[C@]1(OC(C)=O)CO[C@@H]1C[C@@H]2O`, for which the T/C reads like this: (dose: 1.1 mg/kg/injection, schedule: Q01DX005 (ip), vehicle: other) 118 % of control; (dose: 1.1 mg/kg/injection, schedule: Q01DX005 (iv), vehicle: other) 98 % of control; (dose: 1.1 mg/kg/injection, schedule: Q01DX009 (oral), vehicle: other) 106 % of control; (dose: 1.25 mg/kg/injection, schedule: Q01DX009 (ip), vehicle: Klucel (hydroxypropylcellulose) (HPC)) 106 % of control; (dose: 1.25 mg/kg/injection, schedule: Q01DX009 (sc), vehicle: Klucel (hydroxypropylcellulose) (HPC)) 106 % of control; (dose: 1.7 mg/kg/injection, schedule: Q01DX005 (ip), vehicle: other) 115 % of control. Besides, the T/C (dose: 1.7 mg/kg/injection, schedule: Q01DX005 (iv), vehicle: other) was 106 % of control; the T/C (dose: 1.7 mg/kg/injection, schedule: Q03HX024 (ip), vehicle: other) was 160 % of control; the T/C (dose: 2.5 mg/kg/injection, schedule: Q01DX005 (ip), vehicle: Klucel (hydroxypropylcellulose) (HPC)) is 124 % of control; the T/C (dose: 2.5 mg/kg/injection, schedule: Q01DX009 (ip), vehicle: Klucel (hydroxypropylcellulose) (HPC)) is 112 % of control; the T/C (dose: 2.5 mg/kg/injection, schedule: Q01DX009 (oral), vehicle: Klucel (hydroxypropylcellulose) (HPC)) was 100 % of control; the T/C (dose: 2.5 mg/kg/injection, schedule: Q01DX009 (sc), vehicle: Klucel (hydroxypropylcellulose) (HPC)) is 99 % of control. Further, the T/C by setting is: (dose: 2.6 mg/kg/injection, schedule: Q01DX001 (ip), vehicle: other) 106 % of control; (dose: 2.6 mg/kg/injection, schedule: Q01DX001 (iv), vehicle: other) 94 % of control; (dose: 2.6 mg/kg/injection, schedule: Q01DX005 (ip), vehicle: other) 115 % of control; (dose: 2.6 mg/kg/injection, schedule: Q01DX005 (iv), vehicle: other) 97 % of control; (dose: 2.6 mg/kg/injection, schedule: Q03HX024 (ip), vehicle: other) 153 % of control; (dose: 2.6 mg/kg/injection, schedule: Q04DX003 (iv), vehicle: other) 87 % of control. Further, the T/C was 161 % of control (dose: 3.6 mg/kg/injection, schedule: Q01DX005 (ip), vehicle: Klucel (hydroxypropylcellulose) (HPC)); 95 % of control (dose: 4.0 mg/kg/injection, schedule: Q01DX001 (iv), vehicle: other); 120 % of control (dose: 4.0 mg/kg/injection, schedule: Q01DX005 (ip), vehicle: other); 96 % of control (dose: 4.0 mg/kg/injection, schedule: Q01DX009 (oral), vehicle: other); 156 % of control (dose: 4.0 mg/kg/injection, schedule: Q03HX008 (ip), vehicle: other); 120 % of control (dose: 4.0 mg/kg/injection, schedule: Q04DX003 (ip), vehicle: other). The T/C was 87 % of control (dose: 4.0 mg/kg/injection, schedule: Q04DX003 (iv), vehicle: other); 116 % of control (dose: 5.0 mg/kg/injection, schedule: Q01DX009 (ip), vehicle: Klucel (hydroxypropylcellulose) (HPC)); 99 % of control (dose: 5.0 mg/kg/injection, schedule: Q01DX009 (oral), vehicle: Klucel (hydroxypropylcellulose) (HPC)); 98 % of control (dose: 5.0 mg/kg/injection, schedule: Q01DX009 (sc), vehicle: Klucel (hydroxypropylcellulose) (HPC)); 106 % of control (dose: 6.0 mg/kg/injection, schedule: Q01DX001 (ip), vehicle: other); 112 % of control (dose: 6.0 mg/kg/injection, schedule: Q01DX005 (iv), vehicle: other). The T/C was 99 % of control (dose: 6.0 mg/kg/injection, schedule: Q01DX009 (oral), vehicle: other); 178 % of control (dose: 6.0 mg/kg/injection, schedule: Q03HX008 (ip), vehicle: other); 89 % of control (dose: 6.0 mg/kg/injection, schedule: Q04DX003 (iv), vehicle: other); 115 % of control (dose: 9.0 mg/kg/injection, schedule: Q01DX001 (ip), vehicle: other); 106 % of control (dose: 9.0 mg/kg/injection, schedule: Q01DX001 (iv), vehicle: other); 118 % of control (dose: 9.0 mg/kg/injection, schedule: Q01DX005 (iv), vehicle: other). Moreover, the T/C (dose: 9.0 mg/kg/injection, schedule: Q01DX009 (oral), vehicle: other) is 97 % of control; the T/C (dose: 10.0 mg/kg/injection, schedule: Q01DX009 (ip), vehicle: Klucel (hydroxypropylcellulose) (HPC)) is 100 % of control and 106 % of control; the T/C (dose: 10.0 mg/kg/injection, schedule: Q01DX009 (oral), vehicle: Klucel (hydroxypropylcellulose) (HPC)) is 99 % of control; the T/C (dose: 10.0 mg/kg/injection, schedule: Q01DX009 (sc), vehicle: Klucel (hydroxypropylcellulose) (HPC)) is 96 % of control; the T/C (dose: 12.5 mg/kg/injection, schedule: Q04DX003 (ip), vehicle: Klucel (hydroxypropylcellulose) (HPC)) was 150 % of control and 160 % of control; the T/C (dose: 16.7 mg/kg/injection, schedule: Q01DX005 (ip), vehicle: Klucel (hydroxypropylcellulose) (HPC)) was 96 % of control. Further, the T/C is, setting by setting: (dose: 20.0 mg/kg/injection, schedule: Q01DX009 (ip), vehicle: Klucel (hydroxypropylcellulose) (HPC)) 88 % of control; (dose: 20.0 mg/kg/injection, schedule: Q01DX009 (oral), vehicle: Klucel (hydroxypropylcellulose) (HPC)) 98 % of control; (dose: 20.0 mg/kg/injection, schedule: Q01DX009 (sc), vehicle: Klucel (hydroxypropylcellulose) (HPC)) 97 % of control; (dose: 21.6 mg/kg/injection, schedule: Q04DX003 (ip), vehicle: Klucel (hydroxypropylcellulose) (HPC)) 157 % of control; (dose: 25.0 mg/kg/injection, schedule: Q04DX003 (ip), vehicle: Klucel (hydroxypropylcellulose) (HPC)) 151 % of control and 155 % of control; (dose: 40.0 mg/kg/injection, schedule: Q01DX009 (oral), vehicle: Klucel (hydroxypropylcellulose) (HPC)) 104 % of control. The T/C is 124 % of control (dose: 50.0 mg/kg/injection, schedule: Q04DX003 (ip), vehicle: Klucel (hydroxypropylcellulose) (HPC)); 107 % of control (dose: 60.0 mg/kg/injection, schedule: Q04DX003 (ip), vehicle: Klucel (hydroxypropylcellulose) (HPC)); 98 % of control (dose: 80.0 mg/kg/injection, schedule: Q01DX009 (oral), vehicle: Klucel (hydroxypropylcellulose) (HPC)); 99 % of control (dose: 160.0 mg/kg/injection, schedule: Q01DX009 (oral), vehicle: Klucel (hydroxypropylcellulose) (HPC)).
Regarding `COC(=O)/C=C/CS(C)(=O)=O`, the T/C (dose: 50.0 mg/kg/injection, schedule: Q01DX005 (ip), vehicle: saline with Tween-80) is 105 % of control; the T/C (dose: 100.0 mg/kg/injection, schedule: Q01DX005 (ip), vehicle: saline with Tween-80) is 101 % of control; the T/C (dose: 200.0 mg/kg/injection, schedule: Q01DX005 (ip), vehicle: saline with Tween-80) is 99 % of control.
For `O=C(N/C(=C\c1ccc(Cl)cc1)c1nc2ccccc2s1)c1ccccc1`, the T/C reads like this: (dose: 60.0 mg/kg/injection, schedule: Q01DX005 (ip), vehicle: saline with Tween-80) 111 % of control; (dose: 120.0 mg/kg/injection, schedule: Q01DX005 (ip), vehicle: saline with Tween-80) 113 % of control; (dose: 240.0 mg/kg/injection, schedule: Q01DX005 (ip), vehicle: saline with Tween-80) 113 % of control.
As for `CC(=O)NC1C(Nc2ccc(S(=O)(=O)Nc3nccc(C)n3)cc2)OC(CO)C(O)C1O` (stereo not drawn), the T/C is, setting by setting: (dose: 50.0 mg/kg/injection, schedule: Q01DX005 (ip), vehicle: saline) 100 % of control; (dose: 100.0 mg/kg/injection, schedule: Q01DX005 (ip), vehicle: saline) 105 % of control; (dose: 200.0 mg/kg/injection, schedule: Q01DX005 (ip), vehicle: saline) 92 % of control.
`Cc1nc(Nc2c(C)cccc2C)c2c(-c3ccccc3)c[nH]c2n1`: the T/C is 99 % of control (dose: 50.0 mg/kg/injection, schedule: Q01DX005 (ip), vehicle: Klucel (hydroxypropylcellulose) (HPC)); 94 % of control (dose: 100.0 mg/kg/injection, schedule: Q01DX005 (ip), vehicle: Klucel (hydroxypropylcellulose) (HPC)); 92 % of control (dose: 200.0 mg/kg/injection, schedule: Q01DX005 (ip), vehicle: Klucel (hydroxypropylcellulose) (HPC)).
On to `CC1(C)OC(c2ccccc2)=CC1=O`, for which the T/C by setting is: (dose: 100.0 mg/kg/injection, schedule: Q04DX002 (ip), vehicle: saline with Tween-80) 101 % of control; (dose: 200.0 mg/kg/injection, schedule: Q04DX002 (ip), vehicle: saline with Tween-80) 101 % of control.
For `Cc1cc(C)cc(C(=O)NCc2ccc[n+]([O-])c2)c1`, the T/C by setting is: (dose: 60.0 mg/kg/injection, schedule: Q01DX005 (ip), vehicle: saline) 97 % of control; (dose: 120.0 mg/kg/injection, schedule: Q01DX005 (ip), vehicle: saline) 94 % of control.

The values are drawn from PubChem BioAssay AID330 (DTP/NCI, 2004).
